# Data from patent US20060240405A1, “Method for assaying replication of hbv and testing ... drugs” (priority 2002, published 2006).
# Tested on: wild type HBV genomes population
# Test: Phenotypic drug susceptibility assay: Huh7 cells transfected with type-I vector clones, Southern blot of intracellular replicative HBV DNA intermediates
# Conditions: Hepatitis B virus, Huh-7, read-out: IC50 (intracellular replicative HBV DNA intermediates)
smiles,measurement,value
"Nc1ccn([C@@H]2CS[C@H](CO)O2)c(=O)n1 [lamivudine, β-L-(−)-2′,3′-dideoxy-3′-thiacytidine]",IC50,< 100 nM
